# Entries after “also recorded” stand apart in the source; their conditions may differ.
# Columns and labels:
# [1] = tested on: PDE7; design: method as in PMID 24437940; conditions: read-out: PDE7 inhibition IC50; cited from earlier work
# [2] = tested on: GSK-3; design: method as in PMID 24437940; conditions: read-out: GSK-3 inhibition IC50; cited from earlier work
# [3] = tested on: spinal cord injury models; design: method as in PMID 21297958, PMID 23077723; conditions: spinal cord injury models (as well as EAE); cited from earlier work
# [4] = tested on: corpus callosum of LPC-injected mice; experiment: In vivo remyelination, LPC demyelination model; design: species or system C57/BL6 male mice; conditions: 10 mg/kg i.p. from 9 dpi
# Description: Anaesthetized 8 week old C57/BL6 male mice were injected with 2 μl of 1% LPC through a hole drilled in the skull at stereotactic coordinates 1.2 mm posterior, 0.5 mm lateral, 1.4 mm deep to the bregma over 4 minutes using a 30-gauge needle attached to a Hamilton syringe, driven by a KD Scientific Nano pump, for 4 minutes to reduce backflow as previously described. At 9 days post injection (dpi), the first intraperitoneal dose of PDE7-GSK3 inhibitors (VP1.15 or VP3.15; 10 mg/kg of animal) was injected using the same solution detailed above for the cuprizone model. Each inhibitor was injected into a group of 10 mice and another group of 10 mice was injected with the vehicle. Two days after, a second dose was injected (11 dpi) and 5 mice of each group were perfused at 14 dpi with 4% PFA and 2% glutaraldehyde (GTA) in phosphate buffer. The remaining 5 animals of each group received a third injection of inhibitors (15 dpi) and were perfused at 21 dpi. A control group of 3 non-lesioned and non-treated mice was used as control. Fixed brains were post-fixed in 1% GTA for 7 days and then coronally cut into 1 mm slices. The slices containing the injected areas were selected and the area of interest was cut and processed for electron microscopy into a resin (Araldite/TAAB 812 Resin Kit, TAAB) following manufacturer instructions.
# In order to detect the injured areas for investigation, sagittal semi-thin sections (1 μm) were cut using an ultramicrotome (Leica) and stained with toluidine blue. Ultra-thin sections (60 nm thick) were cut and stained in uranyl acetate and lead citrate and the ultrastructure was analysed taking images with a GatanOrius CCD camera coupled to a transmission electronic microscope (Philips CM120). The percentage of myelinated fibres and the thickness of myelin sheaths were examined. The mean percentage of myelinated fibres was measured from 10 fields per animal. Grids were overlaid onto the images and all axons intersecting with the grid lines were counted as myelinated or not[83][84]. The thickness of myelin around myelinated fibres was expressed as a g-ratio (axon perimeter divided by myelinated fibre perimeter) using ImageJ by tracing around a minimum of 100 individual fibres per mouse, using a pen and electronic pad (Bamboo pad, Wacom). To select the fibres randomly, a grid composed by 8 μm[2] squares was overlaid onto the images and fibres in alternate squares were measured. Data were expressed as the mean ± SEM.
# [5] = design: method as in PMID 23077723, PMID 25264825; conditions: cited from earlier work
# [6] = tested on: cerebellar slices demyelinated with LPC; experiment: Ex vivo remyelination in cerebellar slice cultures demyelinated with LPC; format: cell-based, CD1 P7 mice; conditions: 5 μM, 3 days post lesion (3DPL)
# Description: The protocol used was modified from previously described. CD1 P7 mice were decapitated, and their cerebella were dissected into ice-cold HBSS (Invitrogen). 300 μm sagittal slices of cerebellum were cut using a McIllwain tissue chopper, placed on Millicell-CM organotypic culture inserts (3 slices per insert; Millipore) in a medium containing HBSS:BME: horse serum (1:2:1, Invitrogen), 28 mM D (+) - glucose (Normapur), […] L-Glutamine (Invitrogen) and 100 U/mL penicillin, 0.1 mg/mL streptomycin and 0.25 μg/ml Amphotericin B antibiotic anti-mycotic solution (Sigma) and maintained at 5% CO2 and 37 °C. Medium was changed every two days, and after 7 days in culture, demyelination was induced by addition of 0.5 mg/ml LPC (Sigma) to the medium for 15 h. After that, slices were treated with fresh medium containing PDE7-GSK3 or GSK3 inhibitors (VP1.15, VP3.15 or TDZD8; 5 μM). Cultures were maintained for 1 or 3 days post lesion (DPL), and then fixed for 40 minutes and immunostained with anti-MBP antibodies (myelin basic protein –as a marker of myelin; 1:200; Serotec; Cat#MCA4095) and anti-neurofilament antibody (as a marker of axons; 1:200; Abcam; Cat#ab8135). Fluorescence images were taken on a confocal SP5 resonant scanner (Leica Microsystems) at 1μm intervals in white matter areas at x40 magnification. The photographs were merged and co-localisation of both markers was quantified with Image J software using the colocalization highlighter plugin. This measurement was related to the area occupied by axons (neurofilament staining) and normalized with control values showing the data as the mean normalized myelination index ± SEM. Quantification was made in at least three independent experiments.
# [7] = tested on: corpus callosum of cuprizone-fed mice; experiment: In vivo remyelination, cuprizone demyelination model; design: species or system C57/BL6 male mice
# Description: The protocol used was modified from previously described. Demyelination was induced by feeding 8 weeks old male C57/BL6 mice ad libitum with 0.2% cuprizone (bis-cyclo-hexanone-oxaldihydrazone; Sigma) mixed with milled chow (Altromin) for 5 weeks. A control group was maintained in the same conditions but fed with the chow without cuprizone. After cuprizone withdrawal, mice were intraperitoneally injected on 3 alternate days with PDE7-GSK3 inhibitors (VP1.15 or VP3.15; 10 mg/kg of animal) using a solution of the compound (100 mg/mL in DMSO) diluted 1:50 in a solution of 5% Tocrisolve (Tocris, UK) in distilledwater[36] or with the vehicle. 1 week after the cuprizone withdrawal, mice were transcardially perfused with 4% PFA in phosphate buffer. Another group was maintained for 3 weeks after cuprizone withdrawal and injected with 3 doses per week on alternate days of the PDE7-GSK3 inhibitors (10 mg/kg of animal per dose see above) or the vehicle and then perfused. The corpus callosum of three animals per condition was studied. For histological examination, forebrain coronal sections (20 μm) were taken of the rostral part of the corpus callosum as previously described[80][81] and stained with eriochrome cyanine using a standard protocol in order to study the myelin. Briefly, cryosections on glass slides were immersed in acetone for 5 minutes, dried and submerged in eriochrome cyanine solution (Sigma) for 1 hour and then differentiated in 5% (w/v) iron alum for 5–10 minutes, followed by a second differentiation with borax-ferricyanide solution for 5 minutes. The stained area was measured with the Image J software and related to the total analyzed area. For the immunofluorescence analysis, tissue sections were stained with anti-MBP (1:200; Serotec; Cat#MCA4095) for myelin, anti-PDGFRα (1:200; Santa Cruz; Cat#sc338) for OPCs, anti-CC1 (1:100; Calbiochem, Cat#OP80) and anti-GFAP (Glial fibrillary acidic protein; 1:200; Dako; Cat#Z0334) for astrocytes, and tomato lectin (TL; 1:67; Sigma; Cat#L0651) for microglia. Optical images were acquired using an Olympus BX61 microscope and fluorescence images were taken using a DFC480 FX digital camera (Leica) coupled to a Leica DM5000 B microscope or a confocal SP5 resonant scanner (Leica). Myelin staining (with MBP and eriochrome cyanine) and CC1 staining were quantified by taking pictures of non-overlapping fields of coronal sections of the corpus callosum, between the lateral ventricles (2 fields per section, 5–6 sections of each mice; using a x20 objective) and by measuring the fluorescence intensity or blue staining using the Image J software. The number of OPCs per field was also counted in pictures of the midline of the corpus callosum using the x40 objective (4–6 sections per mice). Astrocytes and microglia were evaluated in pictures of the same area of the corpus callosum using the x40 objective and quantified by measuring the area occupied by GFAP or TL staining respectively using the Image J software (4–6 sections per mice). Data were expressed as the mean ± SEM.
# [8] = tested on: OPCs; design: method as in PMID 23661015; conditions: cited from earlier work
smiles,measurement,setting,value
OCC/N=c1/nc(-c2ccccc2)n(-c2ccccc2)s1 [VP1.15],IC50,[1],1100 nM
same,IC50,[2],1950 nM
same,immunomodulatory effect,[3],immunomodulatory effect
same,thickness of myelin sheaths (G-ratio) vs untreated demyelinated control,[4],increased the thickness
same,percentage of myelinated callosal fibers vs vehicle,[4]; analysed at 14 or 21 dpi,increase
same,emetic side effects,[5],without emetic side effects
same,remyelination (normalized myelination index),[6],increased
same,myelin staining (eriochrome cyanine) in corpus callosum vs vehicle,"[7]; 10 mg/kg i.p. on 3 alternate days, 1 week after cuprizone withdrawal",significantly higher myelin staining; also recorded: almost complete remyelination
same,myelin quantification by MBP immunodetection,"[7]; 10 mg/kg i.p., after cuprizone withdrawal","confirmed these results, with similar effects"
same,microglial activation (TL staining) vs vehicle,[7]; 1 week after cuprizone withdrawal,Neither VP1.15 nor VP3.15 induced changes
same,number of OPCs (PDGFRα+ cells) vs vehicle,[7]; one week after cuprizone withdrawal,significantly lower number of OPCs
same,OPC differentiation (and survival) in vitro,[8],enhance OPC differentiation and survival

# Source: paper PMC5335257, “Promoting in vivo remyelination with small molecules: a neuroreparative pharmacological treatment for Multiple Sclerosis” (Scientific Reports, 2017)
